Test results from patent US20250064804A1, “COMBINATION THERAPY FOR TREATING ABNORMAL CELL GROWTH” (Verastem, Inc., priority 2021, published 2025).

Columns and labels:
[1] = test system: Human KRAS mutant pancreatic cancer cell lines stably expressing a tandem fluorescent GFP-LC3-RFP-LC3ΔG reporter; assay: Autophagic flux (GFP-LC3-RFP-LC3ΔG reporter, flow cytometry); type: cell-based; conditions: 1 μM avutometinib, 24 hours, vs vehicle (DMSO); all 3 cell lines tested; 2D conditions
Experimental: Human KRAS mutant pancreatic cancer cell lines stably expressing a tandem fluorescent GFP-LC3-RFP-LC3ΔG reporter were grown in 2D conditions. Briefly, cells were seeded in 96-well plates and after an overnight incubation (17-22 hours), cells were treated with 1 μM of the RAF/MEK clamp avutometinib (VS-6766) for 24 hours. Following treatment, cells were collected and changes in autophagic flux were measured by flow cytometry. Autophagic flux was quantified by calculating the ratio of RFP/GFP in cell lines tested. Autophagic flux was assessed in a panel of 3 human KRAS mutant pancreatic cancer cell lines stably expressing a tandem fluorescent GFP-LC3-RFP-LC3ΔG reporter (FIG. 1). […] In FIG. 1, human KRAS mutant pancreatic cancer cell lines stably expressing a tandem fluorescent GFP-LC3-RFP-LC3ΔG reporter were treated with vehicle (DMSO) or avutometinib for 24 hours. Following treatment, cells were collected and changes in autophagic flux were measured by flow cytometry. Autophagic flux was quantified by calculating the ratio of RFP/GFP in cell lines tested.

[2] = test system: human KRAS mutant pancreatic cancer cell lines; assay: Proliferation assay (live cell counting) with Bliss synergy analysis; type: cell-based; conditions: 5 days, panel of 4 cell lines, 2D conditions
Experimental: Parental human KRAS mutant pancreatic cancer cell lines were grown in 2D conditions. Briefly, cells were seeded in 96-well plates and after an overnight incubation (17-22 hours), cells were treated with the RAF/MEK clamp avutometinib (VS-6766)+/− the autophagy pathway inhibitor chloroquine (CQ) or apilimod (AP) for 5 days. Following drug treatment, live cell counting was performed and plotted to quantify effects on proliferation. Bliss synergy analysis were performed to calculate synergy scores between avutometinib+chloroquine and avutometinib+apilimod.
Proliferation assays were performed to determine whether chloroquine (CQ) or apilimod (AP) augmented the anti-proliferative activity of avutometinib in a panel of 4 human KRAS mutant pancreatic cancer cell lines (FIG. 2). Following drug treatment, live cell counting was performed and plotted to quantify effects on proliferation. Heatmaps indicating BLISS synergy scores are shown (Red=synergy, white=additivity, green=antagonism).

Question: What does the source list for `CNS(=O)(=O)Nc1nccc(Cc2c(C)c3ccc(Oc4ncccn4)cc3oc2=O)c1F` [avutometinib]?
Answer: increase of autophagic flux (ratio of RFP/GFP) [1]: two-to six; Bliss synergy with apilimod in reducing cell viability ([2]; avutometinib + apilimod (AP)): synergistic; Bliss synergy with chloroquine in reducing cell viability ([2]; avutometinib + chloroquine (CQ)): synergistic
